From patent publication US6723897B2, “Methods for controlling gibberellin levels” (Monsanto Technology, LLC, priority 1998, dated 2004)

Columns and labels:
[1] = system: wild-type soybean line A4922; experiment: Field trial of seed coating application rates, wild-type soybean
Protocol: (§1) GA3, GA3-3-acetate, GA5, GA9, and GA12 are evaluated in further field trials. […] The objectives of these tests are: 1) to determine if seed coatings, as compared to imbibition, of GA compounds facilitate rescue of constitutively GA-deficient transgenic dwarf soybeans (transgenic lines 719−2 plus 719+17) without causing elongation of wild-type soybeans (line A4922), and 2) to determine the seed treatment rate ranges for each of the selected GA compounds that would provide rescue of constitutively GA-deficient transgenic dwarf soybeans (transgenic lines 719−2 plus 719+17) without causing elongation of wild-type soybeans (line A4922).
(§2) Seeds are treated with GA3, GA5, GA9, GA12, and GA3-3-acetate at rates of 0, 0.1, 1, 10, and 100 μg/seed. These GA compounds are applied to the seeds using a Hege 11 seed treater (Hans-Ulrich Hege GmbH & Co., Waldenburg, Germany); 100% acetone is used as the carrier solvent. The amount of liquid introduced into the seed treater is six fluid ounces/100 lbs seed rate. In addition, GA12 is tested at 50 μg/seed. The untreated control (UTC) consisted of dry, untreated seeds. Seeds of constitutively GA-deficient transgenic dwarf soybean line 719 and wild-type A4922 are sown in both light and heavy soil. The planting depth is 0.5 to 1 inch (1.27 to 2.54 cm); watering is via drip irrigation. The experiment is carried out in three repetitions, using 25 seeds/plot (one five foot (152.4 cm) long row) for line 719, and 75 seeds/plot (two eight foot (243.8 cm) rows) for line A4922. Observations included total emergence, number of dwarfs not rescued, uniformity in plant height, average plant height, visual notes, and digital photos.
(§3) In all the experiments reported in Tables 17-24, treatments are replicated three times in a randomized block design. Data are analyzed using LSD (least significant difference) 0.05 probability using the PRM 5.0 Statistical Analysis Program (SAS Institute, North Carolina).

[2] = system: non-transgenic soybean line A4922; experiment: Field trial of seed coatings under soil compaction / different soils, wild-type soybean; type: in vivo, Glycine max; conditions: for Count (emergence) / Height (total plant height): A4922
Protocol: The second trial (data reported in Tables 22-24) tested the precursors under conditions of soil compaction.
As noted above, the second trial tested the noted precursors under conditions of soil compaction. These experiments are performed in the same manner as in the first trial, except that the soil is compacted with an all-terrain vehicle.
“Height” equals total plant height in cm.

[3] = system: wild-type soybean line A3237; experiment: Experiment II second greenhouse test, seed imbibition, wild-type soybean; type: in vivo, Glycine max; conditions: 0.25 mg/ml; seeds imbibed 6 hours
Protocol: (The compounds are tested in Experiment I at only one concentration, i.e., 0.25 mg/ml). Test tubes contained […] of ethanol solution per tube. Final volumes are made up to 30 ml with deionized water. After shaking, the treatment solutions (15 ml each) are transferred to each of two 50 ml test tubes. […] Twenty seeds are used in each treatment. Dry seed, ethanol/water-imbibed seed (1% ethanol in water, v/v), and water-imbibed seeds are included as controls. Seeds are imbibed for 6 hours in the test solutions, then planted in bread pans containing Metromix 350 (The Scotts Company, Marysville, Ohio), and covered with 0.5″ Metro-mix. Covered pans are transferred to the greenhouse and subirrigated. Illumination is at a light intensity of 300-400 μmolm^−2s^−1 photosynthetic photon flux; 16 hours light/8 hours dark. Subsequent waterings are also through sub-irrigation until the test is terminated three weeks later. Observations included the number of dwarf, intermediate, and tall plants; plant height; uniformity of rescue; and any visual effects. Digital photographs are also taken.

[4] = system: constitutively GA-deficient transgenic dwarf soybean line 719; experiment: Field trial of seed coating application rates, GA-deficient soybean; type: in vivo, Glycine max; conditions: seed coating
Protocol: as §1, §2, §3

[5] = Heavy soil - Loose, target rate 1.0 μg/seed, Table 23
[6] = Heavy soil - Loose, target rate 10.0 μg/seed, Table 23
[7] = Heavy soil - Loose, target rate 40.0 μg/seed, Table 23
[8] = Heavy soil - compacted, target rate 1.0 μg/seed, Table 23
[9] = Heavy soil - compacted, target rate 10.0 μg/seed, Table 23
[10] = Heavy soil - compacted, target rate 40.0 μg/seed, Table 23
[11] = Heavy soil - loose, target rate 40.0 μg/seed, Table 22
[12] = Light soil - Compacted, target rate 40.0 μg/seed, Table 22
[13] = Light soil - Loose, target rate 1.0 μg/seed, Table 24
[14] = Light soil - Loose, target rate 10.0 μg/seed, Table 24
[15] = Light soil - Loose, target rate 40.0 μg/seed, Table 24
[16] = Light soil - compacted, target rate 1.0 μg/seed, Table 24
[17] = Light soil - compacted, target rate 10.0 μg/seed, Table 24
[18] = Light soil - compacted, target rate 40.0 μg/seed, Table 24

C=C1C[C@]23C[C@H]1CC[C@H]2[C@]1(C)CCC[C@@](C)(C(=O)O)[C@H]1[C@@H]3C(=O)O [GA12]
A4922 Height, cm, Heavy soil ([1]; 0.1 μg compound per seed): 5.3 fg·cm
A4922 Height, cm, Light soil ([1]; 0.1 μg compound per seed): 5.7 f-i cm
No. A4922 Emerged, Heavy soil ([1]; 0.1 μg compound per seed): 24.3 g·days
No. A4922 Emerged, Light soil ([1]; 0.1 μg compound per seed): 45.7 c-h
A4922 Height, cm, Heavy soil ([1]; 1 μg compound per seed): 5.7 efg cm
A4922 Height, cm, Light soil ([1]; 1 μg compound per seed): 5.0 g-i cm
No. A4922 Emerged, Heavy soil ([1]; 1 μg compound per seed): 48.0 ab
No. A4922 Emerged, Light soil ([1]; 1 μg compound per seed): 55.7 ab
A4922 Height, cm, Heavy soil ([1]; 10 μg compound per seed): 5.0 fgh cm
A4922 Height, cm, Light soil ([1]; 10 μg compound per seed): 3.7 hij cm
No. A4922 Emerged, Heavy soil ([1]; 10 μg compound per seed): 19.0 fg
No. A4922 Emerged, Light soil ([1]; 10 μg compound per seed): 46.3 c-g
A4922 Height, cm, Heavy soil ([1]; 50 μg compound per seed): 2.7 hi cm
A4922 Height, cm, Light soil ([1]; 50 μg compound per seed): 3.0 ij cm
No. A4922 Emerged, Heavy soil ([1]; 50 μg compound per seed): 40.0 bcd
No. A4922 Emerged, Light soil ([1]; 50 μg compound per seed): 51.3 bcd
A4922 Height, cm, Heavy soil ([1]; 100 μg compound per seed): 2.3 i cm
A4922 Height, cm, Light soil ([1]; 100 μg compound per seed): 2.7 J·cm
No. A4922 Emerged, Heavy soil ([1]; 100 μg compound per seed): 38.7 bcd
No. A4922 Emerged, Light soil ([1]; 100 μg compound per seed): 53.0 bc
Count (emergence) [2, 5]: 36.0 a
Height (total plant height) [2, 5]: 4.7e-15 g·cm
Count (emergence) [2, 6]: 26.7 b-c
Height (total plant height) [2, 6]: 4.0 g·cm
Count (emergence) [2, 7]: 33.0 ab
Height (total plant height) [2, 7]: 4.3 g·cm
Count (emergence) [2, 8]: 17.0 a
Height (total plant height) [2, 8]: 4.3 cde cm
Count (emergence) [2, 9]: 12.3 abc
Height (total plant height) [2, 9]: 3.7 e cm
Count (emergence) [2, 10]: 13.7 abc
Height (total plant height) [2, 10]: 4.0 de cm
Count (emergence) [2, 11]: 33 ab
Height (total plant height) [2, 11]: 4.3 g·cm
Count (emergence) [2, 12]: 41 a
Height (total plant height) [2, 12]: 4.3 g·cm
Count (emergence) [2, 13]: 43.7 abc
Height (total plant height) [2, 13]: 4.0 hi cm
Count (emergence) [2, 14]: 47.7 a
Height (total plant height) [2, 14]: 3.7 i cm
Count (emergence) [2, 15]: 44.0 abc
Height (total plant height) [2, 15]: 4.0 hi cm
Count (emergence) [2, 16]: 39.3 ab
Height (total plant height) [2, 16]: 4.3 g·cm
Count (emergence) [2, 17]: 41.7 a
Height (total plant height) [2, 17]: 4.0 g·cm
Count (emergence) [2, 18]: 41.0 a
Height (total plant height) [2, 18]: 4.3 g·cm
plant height dose/response in wild-type line A4922 (FIG. 40) ([2]; ten days after planting, compacted soil): inhibited plant height
Significant Visual Observations on Line A3237 [3]: Short plants
719 Height, cm, Heavy soil ([4]; 0.1 μg compound per seed): 4.0 d-i cm
719 Height, cm, Light soil ([4]; 0.1 μg compound per seed): 4.0 g·cm
No. 719 Emerged, Heavy soil ([4]; 0.1 μg compound per seed): 20.7 a-d
No. 719 Emerged, Light soil ([4]; 0.1 μg compound per seed): 22.3 a
No. 719 Not Rescued, Heavy soil ([4]; 0.1 μg compound per seed): 4.3 bc
No. 719 Not Rescued, Light soil ([4]; 0.1 μg compound per seed): 6.3 b
719 Height, cm, Heavy soil ([4]; 1 μg compound per seed): 3.3 e-i cm
719 Height, cm, Light soil ([4]; 1 μg compound per seed): 4.0 g·cm
No. 719 Emerged, Heavy soil ([4]; 1 μg compound per seed): 21.0 abc
No. 719 Emerged, Light soil ([4]; 1 μg compound per seed): 22.0 a
No. 719 Not Rescued, Heavy soil ([4]; 1 μg compound per seed): 5.3 ab
No. 719 Not Rescued, Light soil ([4]; 1 μg compound per seed): 3.7 cd
719 Height, cm, Heavy soil ([4]; 10 μg compound per seed): 3.0 f-i cm
719 Height, cm, Light soil ([4]; 10 μg compound per seed): 2.3 cm·h
No. 719 Emerged, Heavy soil ([4]; 10 μg compound per seed): 22.3 ab
No. 719 Emerged, Light soil ([4]; 10 μg compound per seed): 21.0 ab
No. 719 Not Rescued, Heavy soil ([4]; 10 μg compound per seed): 1.7 def
No. 719 Not Rescued, Light soil ([4]; 10 μg compound per seed): 1.7 efg
719 Height, cm, Heavy soil ([4]; 50 μg compound per seed): 3.3 e-i cm
719 Height, cm, Light soil ([4]; 50 μg compound per seed): 2.3 cm·h
No. 719 Emerged, Heavy soil ([4]; 50 μg compound per seed): 23.7 a
No. 719 Emerged, Light soil ([4]; 50 μg compound per seed): 22.3 a
No. 719 Not Rescued, Heavy soil ([4]; 50 μg compound per seed): 5.0 bc
No. 719 Not Rescued, Light soil ([4]; 50 μg compound per seed): 3.0 cde
719 Height, cm, Heavy soil ([4]; 100 μg compound per seed): 2.7 ghi cm
719 Height, cm, Light soil ([4]; 100 μg compound per seed): 2.0 cm·h
No. 719 Emerged, Heavy soil ([4]; 100 μg compound per seed): 20.7 a-d
No. 719 Emerged, Light soil ([4]; 100 μg compound per seed): 21.3 ab
No. 719 Not Rescued, Heavy soil ([4]; 100 μg compound per seed): 2.0 de
No. 719 Not Rescued, Light soil ([4]; 100 μg compound per seed): 1
